According to patent US8242111B2, “Cyclic inhibitors of 11β-hydroxysteroid dehydrogenase 1” (Vitae Pharmaceuticals, Inc., priority 2008, dated 2012):

Experiments:
human 11β-HSD1 [1] = molecular target: T1, human 11β-HSD1 (Homo sapiens, UniProt P28845); test: Biological Test Example 1: inhibition of a microsomal preparation of 11β-HSD1 (SPA); assay type: biochemical; conditions: for inhibition at 0.1 µM: read-out: Average % inhibition at 100 nM
T1 construct: expressed in transfected cells; host or cells: CHO cells (microsomes)
T1 sequence (P28845 whole entry): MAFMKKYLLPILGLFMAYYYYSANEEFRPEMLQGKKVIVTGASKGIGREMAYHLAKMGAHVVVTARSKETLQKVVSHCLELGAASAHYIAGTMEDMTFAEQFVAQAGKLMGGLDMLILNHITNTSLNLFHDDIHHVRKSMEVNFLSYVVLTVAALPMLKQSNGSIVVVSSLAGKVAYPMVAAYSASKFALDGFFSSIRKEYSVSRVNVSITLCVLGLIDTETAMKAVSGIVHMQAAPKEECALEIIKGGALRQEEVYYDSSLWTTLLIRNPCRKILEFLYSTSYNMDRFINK

human 11β-HSD1 [2] = molecular target: T1, human 11β-HSD1; test: Biological Test Example 4: inhibition of microsomal 11β-HSD1 in the presence of 50% human plasma; assay type: biochemical; conditions: examples; for IC50: 50% human plasma; for Shift: IC50 in Biological Test Example 4 divided by IC50 in Biological Test Example 1
[3] = Biological Test Example 1, read-out: IC50 Range
[4] = Biological Test Example 1 IC50 (nM), examples
[5] = read-out: Biological Test Example 1 IC50, comparator compounds

Row | IC50 (human 11β-HSD1 [1]; [3]) [nM] | IC50 (human 11β-HSD1 [1]; [4]) [nM] | inhibition at 0.1 µM (human 11β-HSD1 [1]) [%] | IC50 (human 11β-HSD1 [2]) [nM] | Shift (human 11β-HSD1 [2]) | IC50 (human 11β-HSD1 [1]; [5]) [nM] | Compound
1 | < 100 | 22.6 | 77.8 | 210 | 9.3 | – | CC(C)(O)C[C@]1(c2ccccc2)CCN([C@H]2CCCN(c3ncccc3C(F)(F)F)C2)C(=O)O1 [Example 2, (S)-6-(2-hydroxy-2-methylpropyl)-6-phenyl-3-((S)-1-(3-(trifluoromethyl)pyridin-2-yl)piperidin-3-yl)-1,3-oxazinan-2-one]
2 | < 100 | 4.4 | 91.3 | 68.7 | 15.6 | – | CC(C)(O)C[C@]1(c2ccccc2)CCN([C@H]2CCCN(c3cc(C(F)(F)F)ccn3)C2)C(=O)O1 [Example 3, (S)-6-(2-hydroxy-2-methylpropyl)-6-phenyl-3-((S)-1-(4-(trifluoromethyl)pyridin-2-yl)piperidin-3-yl)-1,3-oxazinan-2-one]
3 | < 100 | 4.1 | 89.8 | 21.6 | 5.3 | – | CC(C)(O)C[C@]1(c2ccccc2)CCN([C@H]2CCCN(c3ccc(C(F)(F)F)cn3)C2)C(=O)O1 [Example 4, (S)-6-(2-hydroxy-2-methylpropyl)-6-phenyl-3-((S)-1-(5-(trifluoromethyl)Pyridin-2-yl)piperidin-3-yl)-1,3-oxazinan-2-one]
4 | < 100 | 11.8 | 86 | – | – | – | CC(C)(O)C[C@]1(c2ccccc2)CCN([C@H]2CCCN(c3cccc(C(F)(F)F)n3)C2)C(=O)O1 [Example 5, (S)-6-(2-hydroxy-2-methylpropyl)-6-phenyl-3-((S)-1-(6-(trifluoromethyl)pyridin-2-yl)piperidin-3-yl)-1,3-oxazinan-2-one]
5 | < 100 | 6.1 | 89.5 | 14.8 | 2.4 | – | CC(C)(O)C[C@]1(c2ccccc2)CCN([C@H]2CCCN(c3ncc(F)cn3)C2)C(=O)O1 [Example 7, (S)-3-((S)-1-(5-fluoropyrimidin-2-yl)piperidin-3-yl)-6-(2-hydroxy-2-methylpropyl)-6-phenyl-1,3-oxazinan-2-one]
6 | < 100 | 84.3 | 40.2 | – | – | – | Cc1cc(N2CCC[C@H](N3CC[C@](CC(C)(C)O)(c4ccccc4)OC3=O)C2)nc(C)n1 [Example 9, (S)-3-((S)-1-(2,6-dimethylpyrimidin-4-yl)piperidin-3-yl)-6-(2-hydroxy-2-methylpropyl)-6-phenyl-1,3-oxazinan-2-one]
7 | < 100 | 5.5 | 85.8 | 69.2 | 12.7 | – | COC(=O)c1cnc(N2CCC[C@H](N3CC[C@](CC(C)(C)O)(c4ccccc4)OC3=O)C2)nc1 [Example 10]
8 | < 100 | 19.1 | 75.3 | – | – | – | CC(C)(O)C[C@]1(c2ccccc2)CCN([C@H]2CCCN(c3ccnc(C(F)(F)F)n3)C2)C(=O)O1 [Example 11, (S)-6-(2-hydroxy-2-methylpropyl)-6-phenyl-3-((S)-1-(2-(trifluoromethyl)pyrimidin-4-yl)piperidin-3-yl)-1,3-oxazinan-2-one]
9 | < 100 | 3.5 | 93.8 | 7.8 | 2.2 | – | CC(C)(O)C[C@]1(c2ccccc2)CCN([C@H]2CCN(c3ncc(Cl)cn3)C2)C(=O)O1 [Example 14, (S)-3-((S)-1-(5-chloropyrimidin-2-yl)pyrrolidin-3-yl)-6-(2-hydroxy-2-methylpropyl)-6-phenyl-1,3-oxazinan-2-one]
10 | < 100 | 4.3 | 92.2 | 37.6 | 8.7 | – | CC(C)(O)C[C@]1(c2ccccc2)CCN([C@H]2CCN(c3ccc(C(F)(F)F)cn3)C2)C(=O)O1 [Example 15, (S)-6-(2-hydroxy-2-methylpropyl)-6-phenyl-3-((S)-1-(5-(trifluoromethyl)pyridin-2-yl)pyrrolidin-3-yl)-1,3-oxazinan-2-one]
11 | < 100 | 1.4 | 94.9 | 14.4 | 10.0 | – | O=C1O[C@@](CCCO)(c2ccc(F)cc2)CCN1[C@H]1CCCN(c2ccc(C(F)(F)F)cn2)C1 [Example 16, (R)-6-(4-fluorophenyl)-6-(3-hydroxypropyl)-3-((S)-1-(5-(trifluoromethyl)pyridin-2-yl)piperidin-3-yl)-1,3-oxazinan-2-one]
12 | < 100 | – | 94.7 | – | – | – | N#Cc1ccc(N2CCC[C@H](N3CC[C@](CCCO)(c4ccc(F)cc4)OC3=O)C2)nc1 [Example 17, 6((S)-3-((R)-6-(4-fluorophenyl)-6-(3-hydroxypropyl)-2-oxo-1,3-oxazinan-3-yl)piperidin-1-yl)nicotinonitrile]
13 | < 100 | 26.4 | 81.6 | – | – | – | NC(=O)c1ccc(N2CCC[C@H](N3CC[C@](CCCO)(c4ccc(F)cc4)OC3=O)C2)nc1 [Example 18, 6-((S)-3-((R)-6-(4-fluorophenyl)-6-(3-hydroxypropyl)-2-oxo-1,3-oxazinan-3-yl)piperidin-1-yl)nicotinamide]
14 | < 100 | 65.6 | 55.2 | – | – | – | CNC(=O)c1ccc(N2CCC[C@H](N3CC[C@](CCCO)(c4ccc(F)cc4)OC3=O)C2)nc1 [Example 19, 6-((S)-3-((R)-6-(4-fluorophenyl)-6-(3-hydroxypropyl)-2-oxo-1,3-oxazinan-3-yl)piperidin-1-yl)-N-methylnicotinamide]
15 | < 100 | 27.4 | 72.5 | – | – | – | CN(C)C(=O)c1ccc(N2CCC[C@H](N3CC[C@](CCCO)(c4ccc(F)cc4)OC3=O)C2)nc1 [Example 20, 6-((S)-3-((R)-6-(4-fluorophenyl)-6-(3-hydroxpropyl)-2-oxo-1,3-oxazinan-3-yl)piperidin-1-yl)-N,N-dimethylnicotinamide]
16 | < 100 | 5.8 | 94.1 | 52.8 | 9.2 | – | CC(C)(O)C[C@]1(c2ccccc2)CCN([C@H]2CCN(c3nccc(C(F)(F)F)n3)C2)C(=O)O1 [Example 23, (S)-6-(2-hydroxy-2-methylpropyl)-6-phenyl-3-((S)-1-(4-(trifluoromethyl)pyrimidin-2-yl)pyrrolidin-3-yl)-1,3-oxazinan-2-one]
17 | < 100 | 42.3 | 67.8 | – | – | – | COc1cnc(N2CC[C@H](N3CC[C@](CC(C)(C)O)(c4ccccc4)OC3=O)C2)nc1 [Example 24, (S)-6-(2-hydroxy-2-methylpropyl)-3-((S)-1-(5-methoxypyrimidin-2-yl)pyrrolidin-3-yl)-6-phenyl-1,3-oxazinan-2-one]
18 | – | – | – | – | – | 0.99 | (S)-3-((S)-1-(5-fluoropyrimidin-2-yl)piperidin-3-yl)-6-(2-hydroxy-2-methylpropyl)-6-phenyl-1,3-oxazinan-2-one [Example 7]
19 | – | – | – | – | – | 1.8 | (S)-6-(2-hydroxy-2-methylpropyl)-6-phenyl-3-((S)-1-(3-(trifluoromethyl)pyridin-2-yl)piperidin-3-yl)-1,3-oxazinan-2-one [Example 2]
20 | – | – | – | – | – | 0.51 | (S)-6-(2-hydroxy-2-methylpropyl)-6-phenyl-3-((S)-1-(6-(trifluoromethyl)pyridin-2-yl)piperidin-3-yl)-1,3-oxazinan-2-one [Example 5]

Row | Compound | IC50 (human 11β-HSD1 [1]; [3]) [nM] | IC50 (human 11β-HSD1 [1]; [4]) [nM] | inhibition at 0.1 µM (human 11β-HSD1 [1]) [%] | IC50 (human 11β-HSD1 [2]) [nM] | Shift (human 11β-HSD1 [2]) | IC50 (human 11β-HSD1 [1]; [5]) [nM]
21 | CC(C)(O)C[C@]1(c2ccccc2)CCN([C@H]2CCCN(c3ncccc3F)C2)C(=O)O1 [Example 1, (S)-3-((S)-1-(3-fluoropyridin-2-yl)piperidin-3-yl)-6-(2-hydroxy-2-methylpropyl)-6-phenyl-1,3-oxazinan-2-one] | < 100 | 12.7 | 85.5 | – | – | –
22 | COc1cnc(N2CCC[C@H](N3CC[C@](CC(C)(C)O)(c4ccccc4)OC3=O)C2)nc1 [Example 12, (S)-6-(2-hydroxy-2-methylpropyl)-3-((S)-1-(5-methoxypyrimidin-2-yl)piperidin-3-yl)-6-phenyl-1,3-oxazinan-2-one] | < 100 | 4.3 | 91.7 | 10.4 | 2.4 | –
23 | Cc1cnc(N2CCC[C@H](N3CC[C@](CC(C)(C)O)(c4ccccc4)OC3=O)C2)s1 [Example 13, (S)-6-(2-hydroxy-2-methylpropyl)-3-((S)-1-(5-methylthiazol-2-yl)piperidin-3-yl)-6-phenyl-1,3-oxazinan-2-one] | < 100 | 13.5 | 90.4 | – | – | –
24 | CC(C)(O)C[C@]1(c2ccccc2)CCN([C@H]2CCCN(c3ncc(C(=O)NC(C)(C)C)s3)C2)C(=O)O1 [Example 21, N-tert-butyl-2-((S)-3-((S)-6-(2-hydroxy-2-methylpropyl)-2-oxo-6-phenyl-1,3-oxazinan-3-yl)piperidin-1-yl)thiazole-5-carboxamide] | 190 | > 100 | 27.3 | – | – | –
25 | Cc1nnc(N2CCC[C@H](N3CC[C@](CC(C)(C)O)(c4ccccc4)OC3=O)C2)cc1Cl [Example 22, (S)-3-((S)-1-(5-chloro-6-methylpyridazin-3-yl)piperidin-3-yl)-6-(2-hydroxy-2-methylpropyl)-6-phenyl-1,3-oxazinan-2-one] | 190 | > 100 | 20.9 | – | – | –
26 | (S)-3-((S)-1-(3-fluoropyridin-2-yl)piperidin-3-yl)-6-(2-hydroxy-2-methylpropyl)-6-phenyl-1,3-oxazinan-2-one [Example 1] | – | – | – | – | – | 0.77
